From US20240108740A1, “THERAPEUTIC COMPOSITIONS INCLUDING SPN10 AND USES THEREOF” (Stealth BioTherapeutics Inc., priority 2022, published 2024)
Residues, ends and D or L forms follow the SMILES beside them.

Tests used:
high-fat fed rats = experiment: Example 33: ROS production and redox state in rats fed a high-fat diet; type: in vivo, rat
Protocol: Ten rats maintained on a high-fat diet will receive daily intraperitoneal injections of peptide conjugates (1.5 mg/kg); aromatic-cationic peptides (an equivalent molar dose of aromatic-cationic peptide based on the concentration of the aromatic-cationic peptide administered in the peptide conjugate treatment group); SPN10(s) (an equivalent molar dose of SPN10 based on the concentration of SPN10 administered in the peptide conjugate treatment group); or SPN10(s) in combination with aromatic-cationic peptides (e.g., an equivalent molar dose of SPN10 based on the concentration of SPN10 administered in the peptide conjugate treatment group and an equivalent molar dose of aromatic-cationic peptide based on the concentration of aromatic-cationic peptide administered in the peptide conjugate treatment group) dissolved in phosphate-buffered saline. Dose response curves for peptide conjugates, aromatic-cationic peptides and SPN10(s) with or without aromatic-cationic peptides will be established in vitro and in vivo. Mitochondrial function will be measured according to the methods described herein.
Next, rats will be placed on a high-fat diet (60%) for six weeks with daily administration of vehicle, peptide conjugates, aromatic-cationic peptides, or SPN10(s) with or without aromatic-cationic peptides.
Protein homogenates will be prepared by homogenizing 100 mg of frozen muscle in a buffer containing 10 mM Tris, 1 mM EDTA, 1 mM EGTA, 2 mM NaOrthovanadate, 2 mM NaPyrophosphate, 5 mM NaF, and protease inhibitor cocktail (Complete), at pH 7.2. After homogenization, 1% Triton X-100 will be added to the protein suspension, which will be vortexed and incubated on ice for 5 minutes. Samples will be centrifuged at 10,000 rpm for 10 minutes to pellet the insoluble debris. For GSSG measurement, tissue will be homogenized in a solution containing 20 mM Methyl-2-vinylpyridinium triflate to scavenge all reduced thiols in the sample. Total GSH and GSSG will be measured using a commercially available GSH/GSSG assay (Oxis Research Products, Percipio Biosciences, Foster City, CA, U.S.A).
To establish a link between the increased mitochondrial H2O2 production brought about by high-fat diet and its effect on overall redox environment of skeletal muscle, both GSH and GSSG will be measured in skeletal muscle from standard chow-fed and high-fat fed rats 1) following a 10 hour fast, and 2) 1 hour after administration of a standard glucose load (oral gavage, 10 hour fasted).

SN-4741 cells = experiment: Example 31: MPP^+ toxicity (Hoechst 33342); type: cell-based; details: 50 μM MPP^+, 48 hours
Protocol: SN-4741 cells will be treated with buffer; 50 μM MPP^+; 50 μM MPP^+ and peptide conjugates; 50 μM MPP^+ and aromatic-cationic peptides; or 50 μM MPP^+ and SPN10(s); or 50 μM MPP^+ and SPN10(s) with aromatic-cationic peptides for 48 hours. Apoptosis will be measured by fluorescent microscopy with Hoechst 33342.

Sprague-Dawley rats = experiment: Example 41: contrast-induced nephropathy in glycerol-induced rhabdomyolysis; type: in vivo, rat; details: 25% glycerin + diatrizoate
Protocol: Animal model: This Example will utilize animals subjected to glycerol-induced rhabdomyolysis, as previously described. Parvez, et al., Invest. Radiol., 24:698-702 (1989); Duan, et al., Acta Radiologica, 41:503-507(2000). Sprague-Dawley rats with body weight of 300-400 g will be dehydrated for 24 hours followed by intramuscular (i.m.) injection of 25% glycerol solution (v/v) at the dose of 10 mL/kg. Twenty-four hours later, the animals will be administered a contrast dye with peptide conjugates, aromatic-cationic peptides, SPN10(s) with or without aromatic-cationic peptides, or control vehicle according to the following: 1) 25% glycerin+Saline+PBS (n=6), 2) 25% glycerin+diatrizoate+PBS (n=7), 3) 25% glycerin+diatrizoate+peptide conjugates (n=7), 4) 25% glycerin+diatrizoate+aromatic-cationic peptides (n=7), 5) 25% glycerin+diatrizoate+SPN10(s), and 6) 25% glycerin+diatrizoate+SPN10(s)+aromatic-cationic peptides. […] Samples will be analyzed by students t-test and differences will be considered significant at p<0.05.
Renal function: Renal function will be assessed by determining serum and urinary creatinine at baseline, 24 hours after dehydration, and 48 hours following contrast dye administration. Creatinine clearance will be calculated based on serum and urinary creatinine levels and urinary volume. Urinary albumin concentration will be determined using a competition ELISA assay.

[1] = test system: human retinal epithelial cells (HREC); experiment: Example 55: high glucose-induced injury; type: cell-based
Protocol: Methods of HREC culture useful in the studies of the present technology are known. See generally, Li, et al., Clin. Ophthal. Res. 23:20-2 (2005); Premanand, et al., Invest. Ophthalmol. Vis. Sci. 47:2179-84 (2006). Briefly, HREC cells will be cultured under one of these conditions: 1) normal control; 2) 30 mM glucose; 3) 30 mM glucose+peptide conjugates; 4) 30 mM glucose+an aromatic-cationic peptide; 5) 30 mM glucose+SPN10; 6) 30 mM glucose+SPN10+aromatic-cationic peptides. Survival of HRECs in high glucose co-treated with various concentrations of peptide conjugates (10 nM, 100 nM, 1 μM, 10 μM) will be measured by flow cytometry using Annexin V. See generally, Koopman, et al., Blood 84:1415 (1994); Homburg, et al., Blood X5: 532 (1995); Vermes, et al. J. Immunol. Meth. 184:39 (1995); Fadok, et al., J. Immunol. 148:2207 (1992).
The survival of HRECs in high glucose co-treated with peptide conjugates, aromatic-cationic peptides, or SPN10(s) with or without aromatic-cationic peptides will be tested at 24 hours and 48 hours.
It is expected that glucose (30 mmol/L) will induce cytochrome c release from the mitochondria of HRECs. Fixed HRECs will be immunolabeled with a cytochrome c antibody and a mitochondrial specific protein antibody (HSP60).

[2] = Example 17: linoleic acid peroxidation induced by ABAP; type: biochemical
Protocol: Linoleic acid peroxidation will be induced using the water-soluble initiator 2,2′-azobis(2-amidinopropane) (ABAP), and lipid peroxidation will be detected by the formation of conjugated dienes, monitored spectrophotometrically at 236 nm (E. Longoni, W. A. Pryor, P. Marchiafava, Biochem. Biophys. Res. Commun. 233, 778-780 (1997)).
5 mL of 0.5 M ABAP and varying concentrations of peptide conjugates; aromatic-cationic peptides (an equivalent molar dose of aromatic-cationic peptide based on the concentration of the aromatic-cationic peptide administered in the peptide conjugate treatment group); SPN10(s) (an equivalent molar dose of SPN10 based on the concentration of SPN10 administered in the peptide conjugate treatment group); or SPN10(s) in combination with aromatic-cationic peptides (e.g., an equivalent molar dose of SPN10 based on the concentration of SPN10 administered in the peptide conjugate treatment group and an equivalent molar dose of aromatic-cationic peptide based on the concentration of aromatic-cationic peptide administered in the peptide conjugate treatment group) will be incubated in 2.4 mL linoleic acid suspension until autoxidation rate becomes constant.

Guinea pig hearts = experiment: Example 14: ischemia-reperfusion-induced myocardial stunning
Protocol: Guinea pig hearts will be rapidly isolated, and the aorta will be cannulated in situ and perfused in a retrograde fashion with an oxygenated Krebs-Henseleit at constant pressure (40 cm H2O). Contractile force will be measured with a small hook inserted into the apex of the left ventricle and a silk ligature connected to a force-displacement transducer. Coronary flow will be measured by timing the collection of pulmonary artery effluent.
Hearts will be perfused with peptide conjugates (1-100 nM); aromatic-cationic peptides (an equivalent molar dose of aromatic-cationic peptide based on the concentration of the aromatic-cationic peptide administered in the peptide conjugate treatment group); SPN10(s) (an equivalent molar dose of SPN10 based on the concentration of SPN10 administered in the peptide conjugate treatment group); or SPN10(s) in combination with aromatic-cationic peptides (e.g., an equivalent molar dose of SPN10 based on the concentration of SPN10 administered in the peptide conjugate treatment group and an equivalent molar dose of aromatic-cationic peptide based on the concentration of aromatic-cationic peptide administered in the peptide conjugate treatment group) for 30 minutes and then subjected to 30 minutes of global ischemia. Reperfusion will […] be performed using perfusion buffer lacking both peptide conjugates and SPN10(s) (with or without aromatic-cationic peptides).

[3] = test system: Isolated guinea pig hearts; experiment: Example 28: lipid peroxidation in hearts subjected to ischemia and reperfusion; details: brief intervals of ischemia and reperfusion; compared to untreated controls
Text: Isolated guinea pig hearts will be perfused in a retrograde manner in a Langendorff apparatus and subjected to various intervals of ischemia-reperfusion. Hearts will be fixed immediately, embedded in paraffin, and sectioned. Immunohistochemical analysis of 4-hydroxy-2-nonenol (HNE)-modified proteins will be carried out using an anti-HNE antibody.

Structure (SMILES): N=C(N)NCCC[C@H](NC(=O)[C@@H](N)Cc1c[nH]c2ccccc12)C(=O)N[C@@H](Cc1c[nH]c2ccccc12)C(=O)N[C@@H](CCCCN)C(N)=O [SPN10, H-L-Trp-L-Arg-L-Trp-L-Lys-NH2] (H-WRWK-NH2)
- GSH/GSSG ratio in skeletal muscle (high-fat fed rats; even following glucose ingestion): preserve the GSH/GSSG ratio near control levels
- mitochondrial H2O2 production during succinate and palmitoyl-carnitine supported respiration (high-fat fed rats; high-fat diet (60%) six weeks, daily administration): reduction in mitochondrial H2O2 production
- mitochondrial H2O2 production during succinate-supported respiration (dose response curves) (high-fat fed rats; in vitro and in vivo): reduction in mitochondrial H2O2 production
- reduction in total cellular glutathione content (GSHt) by high-fat feeding (high-fat fed rats; skeletal muscle): irrespective of treatment
- number of apoptotic cells after MPP^+ (SN-4741 cells): reduce the number of apoptotic cells
- albuminuria after contrast dye (Sprague-Dawley rats): attenuate or prevent albuminuria
- creatinine clearance after contrast dye (Sprague-Dawley rats): attenuate or prevent reduced creatinine clearance
- loss of proximal tubule brush border, glomerular swelling and tubular protein cast deposition (PAS) (Sprague-Dawley rats): attenuate or prevent these effects
- production of ROS ([1]; 30 mM glucose): reduce the production of ROS
- survival of HRECs in high glucose (Annexin V) ([1]; 30 mM glucose, 24 hours and 48 hours): significantly improved
- glucose-induced release of cytochrome c from mitochondria to cytoplasm ([1]; 30 mmol/L glucose, 24 or 48 hours): prevent or attenuate this effect
- loss of mitochondrial membrane potential by high glucose (TMRM) ([1]; 24 or 48 hours): prevent or attenuate this effect
- peroxidation of linoleic acid [2]: dose-dependently inhibit the peroxidation of linoleic acid
- cardiac stunning (Guinea pig hearts): complete inhibition of cardiac stunning
- coronary flow during reperfusion (Guinea pig hearts): well-sustained throughout the reperfusion period
- heart rate (Guinea pig hearts): no decrease in heart rate
- contractile force during the reperfusion period (Guinea pig hearts; 30 minutes perfusion, 30 minutes global ischemia): improved compared to untreated controls
- lipid peroxidation (HNE-modified proteins) [3]: prevent lipid peroxidation
